Measurements reported in publication PMC7816197 (Journal of Medicinal Chemistry, 2020).
One block for each compound: values may come before it.

What was measured:
[1] = target: human NAPE-PLD (Homo sapiens, UniProt Q6IQ20); experiment: NAPE-PLD PED6 surrogate substrate activity assay; format: biochemical; conditions: for fold increase in potency/activity: compared to 2; for fold drop in potency: compared to hit 2; for inhibitory activity in words: PED6 assay, human NAPE-PLD
[2] = system: HEK293 cells; conditions: cited from earlier work
[3] = system: Neuro-2a cells; conditions: cited from earlier work
[4] = system: brains of freely moving mice; conditions: cited from earlier work
[5] = not suited for in vivo use; cited from earlier work

human NAPE-PLD, sequence (Q6IQ20 whole entry): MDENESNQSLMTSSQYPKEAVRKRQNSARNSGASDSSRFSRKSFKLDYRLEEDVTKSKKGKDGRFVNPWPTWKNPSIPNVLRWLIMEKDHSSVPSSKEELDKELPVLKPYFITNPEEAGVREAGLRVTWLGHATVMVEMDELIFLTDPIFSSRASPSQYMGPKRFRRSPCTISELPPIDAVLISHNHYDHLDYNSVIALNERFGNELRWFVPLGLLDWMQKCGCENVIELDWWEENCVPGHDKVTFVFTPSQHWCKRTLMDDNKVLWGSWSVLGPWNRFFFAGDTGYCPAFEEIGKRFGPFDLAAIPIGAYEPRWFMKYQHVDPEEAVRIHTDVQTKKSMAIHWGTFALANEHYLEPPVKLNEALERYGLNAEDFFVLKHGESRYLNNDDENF

Compound: O=c1[nH]c(=O)c2cc(S(=O)(=O)Nc3ccc(-c4ccncc4)cc3)ccc2[nH]1 [ARN19874]
NAE levels [2]: did not affect | NAPE levels [2]: increase | IC50 [1]: 54 µM

Compound: CN(CCc1ccccc1)c1cc(N2CCOCC2)cc(C(=O)NCC2CC2)n1 [Compound 3, N-(Cyclopropylmethyl)-6-(methyl(phenethyl)amino)-4-morpholino-picolinamide]
fold drop in potency [1]: 10 fold

Compound: CN(CCc1ccccc1)c1nc(C(=O)NCC2CC2)nc(N2CCOCC2)n1 [Compound 6, N-(Cyclopropylmethyl)-4-(methyl(phenethyl)amino)-6-morpholino-1,3,5-triazine-2-carboxamide]
inhibitory activity in words [1]: completely inactive

Compound: CN(CC1CC1)C(=O)c1cc(N2CCOCC2)nc(N(C)CCc2ccccc2)n1 [Compound 7, N-(Cyclopropylmethyl)-N-methyl-2-(methyl(phenethyl)amino)-6-morpholinopyrimidine-4-carboxamide]
inhibitory activity in words [1]: complete loss of potency

Compound: CC(C)CNC(=O)c1cc(N2CCOCC2)nc(N(C)CCc2ccccc2)n1 [Compound 15, N-Isobutyl-2-(methyl(phenethyl)amino)-6-morpholinopyrimidine-4-carboxamide]
fold drop in potency [1]: 10 fold

Compound: CN(CCc1ccccc1)c1nc(NC(=O)CC2CC2)cc(N2CCOCC2)n1 [Compound 30, 2-Cyclopropyl-N-(2-(methyl(phenethyl)amino)-6-morpholinopyrimidin-4-yl)acetamide]
fold drop in potency [1]: 10 fold

Compound: O=C(NCC1CC1)c1cc(N2CCOCC2)nc(Cl)n1 [Compound 31, 2-Chloro-N-(cyclopropylmethyl)-6-morpholinopyrimidine-4-carboxamide]
inhibitory activity in words [1]: inactive

Compound: O=C(NCC1CC1)c1cc(N2CCOCC2)ncn1 [Compound 32, N-(Cyclopropylmethyl)-6-morpholinopyrimidine-4-carboxamide]
inhibitory activity in words [1]: inactive

Compound: CN(CCc1ccccc1)c1nc(C(=O)NCC2CC2)cc(N2CCCC(F)(F)C2)n1 [Compound 72, N-(Cyclopropylmethyl)-6-(3,3-difluoropiperidin-1-yl)-2-(methyl(phenethyl)amino)pyrimidine-4-carboxamide]
fold increase in potency/activity [1]: 2 fold

Compound: CN(C)c1cc(C(=O)NCC2CC2)nc(N(C)CCc2ccccc2)n1 [Compound 81, N-(Cyclopropylmethyl)-6-(dimethylamino)-2-(methyl(phenethyl)amino)pyrimidine-4-carboxamide]
fold increase in potency/activity [1]: 2 fold

Compound: CN(CCc1ccccc1)c1nc(C(=O)NCC2CC2)cc(N2CCCC2)n1 [Compound 87, N-(Cyclopropylmethyl)-2-(methyl(phenethyl)amino)-6-(pyrrolidin-1-yl)pyrimidine-4-carboxamide]
fold increase in potency/activity [1]: ~4 fold

Compound: Oc1c(Cl)cc(Cl)c(Cl)c1Cc1c(O)c(Cl)cc(Cl)c1Cl [hexachlorophene]
neurotoxicity [5]: neurotoxic effects

Compound: C[C@H](CCC(=O)O)[C@H]1CC[C@H]2[C@@H]3CC[C@@H]4C[C@H](O)CC[C@]4(C)[C@H]3CC[C@]12C [lithocholic acid, reference compound]
inhibitory activity in words [1]: not active

More lines, main results first:

fold increase in potency/activity [1]: 2 fold
Compound: O=C(NCC1CC1)c1cc(N2CCOCC2)nc(N2CCCC(c3ccccc3)C2)n1 (racemic) [Compound 62, (±)-N-(Cyclopropylmethyl)-6-morpholino-2-(3-phenylpiperidin-1-yl)pyrimidine-4-carboxamide]

fold increase in potency/activity [1]: 2 fold
Compound: O=C(NCC1CC1)c1cc(N2CCOCC2)nc(N2CCCC2Cc2ccccc2)n1 (racemic) [Compound 63, (±)-2-(2-Benzylpyrrolidin-1-yl)-N-(cyclopropylmethyl)-6-morpholinopyrimidine-4-carboxamide]

turnover of PED6 ([1]; at a dose of 10 μM, full efficacy): completely blocked | fold increase in potency/activity [1]: 10 fold
Compound: O=C(NCC1CC1)c1cc(N2CC[C@H](O)C2)nc(N2CCC[C@@H](c3ccccc3)C2)n1 [Compound 1, N-(Cyclopropylmethyl)-6-((S)-3-hydroxypyrrolidin-1-yl)-2-((S)-3-phenylpiperidin-1-yl)pyrimidine-4-carboxamide]
NAE levels including anandamide [3]: reduced | anandamide levels in mouse brain ([4]; 30 mg/kg, intraperitoneal injection): decreased | NAE levels including anandamide ([4]; brains of freely moving mice): reduced

fold increase in potency/activity [1]: 2 fold
Compound: CC(C)N(CCc1ccccc1)c1nc(C(=O)NCC2CC2)cc(N2CCOCC2)n1 [Compound 55, N-(Cyclopropylmethyl)-2-(isopropyl(phenethyl)amino)-6-morpholinopyrimidine-4-carboxamide]

fold-reduced activity ([1]; (R,R) enantiomer compared to 1): 3 fold
Compound: O=C(NCC1CC1)c1cc(N2CC[C@@H](O)C2)nc(N2CCC[C@H](c3ccccc3)C2)n1 [Compound 107, N-(Cyclopropylmethyl)-6-((R)-3-hydroxypyrrolidin-1-yl)-2-((R)-3-phenylpiperidin-1-yl)pyrimidine-4-carboxamide]
